In patent US20080171783A1, “COMPOSITIONS AND METHODS FOR TREATING HYPERPROLIFERATIVE DISEASE” (Migenix Inc., priority 2006, published 2008):

Key:
Calf polymerase alpha = biological target: T1, Calf polymerase alpha (Bos taurus, UniProt A0AAA9TD94); assay: Calf polymerase alpha inhibition (Replizyme kit); format: biochemical; conditions: for % Inhibition / inhibition at 10 µM: at 10 μM, single point screening; for IC50: dose response
T1 construct: purchased Replizyme Ltd (Heslington, York, UK)
T1 sequence (A0AAA9TD94 1-1441): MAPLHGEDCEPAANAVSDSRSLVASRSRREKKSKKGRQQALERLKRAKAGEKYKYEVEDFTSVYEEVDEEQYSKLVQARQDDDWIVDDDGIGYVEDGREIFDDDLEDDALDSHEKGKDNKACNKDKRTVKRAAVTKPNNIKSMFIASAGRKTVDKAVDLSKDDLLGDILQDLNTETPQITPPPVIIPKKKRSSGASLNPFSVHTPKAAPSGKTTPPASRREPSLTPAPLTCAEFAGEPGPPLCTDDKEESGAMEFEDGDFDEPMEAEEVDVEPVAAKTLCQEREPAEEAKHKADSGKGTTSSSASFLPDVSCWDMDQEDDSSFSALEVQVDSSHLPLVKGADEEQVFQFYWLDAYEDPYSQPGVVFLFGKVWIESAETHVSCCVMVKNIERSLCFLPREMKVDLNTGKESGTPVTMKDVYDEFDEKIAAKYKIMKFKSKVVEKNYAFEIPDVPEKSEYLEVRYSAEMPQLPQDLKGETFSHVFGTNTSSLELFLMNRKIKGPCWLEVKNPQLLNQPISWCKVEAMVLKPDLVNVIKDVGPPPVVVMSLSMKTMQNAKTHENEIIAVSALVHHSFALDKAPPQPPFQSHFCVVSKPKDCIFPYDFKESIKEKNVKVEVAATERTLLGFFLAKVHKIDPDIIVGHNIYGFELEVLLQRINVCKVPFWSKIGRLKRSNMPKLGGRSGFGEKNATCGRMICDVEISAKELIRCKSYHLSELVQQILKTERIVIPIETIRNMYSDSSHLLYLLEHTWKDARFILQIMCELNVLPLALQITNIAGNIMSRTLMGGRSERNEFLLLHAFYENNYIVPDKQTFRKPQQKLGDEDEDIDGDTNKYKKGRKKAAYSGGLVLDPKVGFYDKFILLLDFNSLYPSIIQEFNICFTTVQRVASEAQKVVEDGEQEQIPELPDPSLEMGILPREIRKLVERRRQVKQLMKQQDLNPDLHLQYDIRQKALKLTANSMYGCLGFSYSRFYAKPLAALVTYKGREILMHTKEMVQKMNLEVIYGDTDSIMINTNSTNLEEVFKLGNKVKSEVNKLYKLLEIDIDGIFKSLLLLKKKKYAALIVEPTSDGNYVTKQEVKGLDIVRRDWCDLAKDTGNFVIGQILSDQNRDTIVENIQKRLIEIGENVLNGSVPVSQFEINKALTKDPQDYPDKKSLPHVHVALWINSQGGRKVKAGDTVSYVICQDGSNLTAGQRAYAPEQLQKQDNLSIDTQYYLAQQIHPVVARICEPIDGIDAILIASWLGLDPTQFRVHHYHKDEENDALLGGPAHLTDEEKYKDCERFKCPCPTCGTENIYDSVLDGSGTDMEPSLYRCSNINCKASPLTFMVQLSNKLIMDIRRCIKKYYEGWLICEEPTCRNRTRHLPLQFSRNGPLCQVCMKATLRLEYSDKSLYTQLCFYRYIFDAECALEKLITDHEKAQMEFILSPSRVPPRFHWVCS
Experimental: Calf polymerase alpha and human polymerase alpha investigations were performed with a kit available from Replizyme Ltd (Heslington, York, UK).

[1] = Cytotoxicity Huh-7 cells (MTS/PMS); format: cell-based; conditions: human, 3-day incubation
Experimental: Cytotoxicity of compounds for use in treating hyperproliferative diseases or disorders was tested in Huh-7 cells using tetrazolium salt MTS combined with the electron acceptor PMS in a 96-well format. Six doses of each compound was tested, starting at about 1.2 μM to 0.4 μM serially diluted in a final 1% DMSO solution in DMEM/F12 media. Terfenadine was used as a positive control. Cells were seeded at 2.5×10^5 cells/mL in each well of the 96-well plates in a final volume of 0.1 mL, and then incubated at 37° C. in the presence of 5% CO2 overnight. Compounds (in media) were added the following day and the treated cells were incubated another 3-days at 37° C. in the presence of 5% CO2. After the 3-day incubation, 20 μL of MTS/PMS (3-(4,5-dimethylthiazol-2-yl)-5-(3-carboxymethoxy-phenyl)-2-(4-sulfophenyl)-2H-tetrazolium) was added to each well. After about a one to four hour incubation of MTS/PMS at 37° C. and 5% CO2—that is, until an OD490 absorbance of ≧0.6 for the wells containing cells with media only, the level of cytotoxicity at each concentration was calculated. […] Dose response results from the cytotoxicity assay (CC50) are provided in Table 4 in comparison with IC50 data (from Table 2)

[2] = system: 5 Leukemia and 5 Colon Cancer Cell Lines; assay: Cell viability by XTT, cell line panel; format: cell-based; conditions: for Range (Percentage of Control over the same 10 cell lines) / ARF (Average Response Factor, Average Percentage of Control): 10 μM; for Range (Percentage of Control over the same 10 cell lines): lowest to highest of the ten cell lines; for viability at 10 µM / ARF (Average Response Factor, Average Percentage of Control): average of the ten Percentage of Control values; for viability at 10 µM: read-out: ARF (Average Response Factor, Average Percentage of Control)
Experimental: Compounds were solubilized at […] in DMSO and were stored at −20° C. Test compounds were initially tested at a single concentration of 10 μM and a subset of test compounds were further tested in selected cell lines using a six concentration dose response curve.
Cell Preparation Cancer cell lines were passaged in T-75 flasks prior to use in the assay in cell culture medium recommended by the ATCC (American Type Culture Collection; Table 6). On the day preceding the assay, the cells were split 1:2 to assure they were in an exponential growth phase at the time of compound treatment. Total cell and viability quantification was performed using a hemocytometer and Trypan Blue dye exclusion. […] The cells were resuspended at the appropriate cell per mL (Table 6) in tissue culture medium and added to the microtitre plates in a volume of 100 μL. Colon cell lines were incubated overnight at 37° C./5% CO2 to allow for cell adherence to the plates.
Plate Format: Each plate contains cell control wells (cells only), drug calorimetric control wells (drug only) as well as experimental wells (drug plus cells). Samples were tested in triplicate at a concentration of 10 μM and five half-logarithmic dilutions.
Cell Viability by XTT: Following incubation at 37° C. in a 5% CO2 incubator for four days, the test plates were stained with the tetrazolium dye XTT (2,3-bis(2-methoxy-4-nitro-5-sulfophenyl)-5-[(phenylamino)carbonyl]-2H-tetrazolium hydroxide). XTT-tetrazolium was metabolized by the mitochondrial enzymes of metabolically active cells to a soluble formazan product. XTT solution was prepared daily as a stock of 1 mg/mL in RPMI1640. Phenazine methosulfate (PMS) solution was prepared at 0.15 mg/mL in phosphate buffered saline (PBS) and stored in the dark at −20° C. XTT/PMS stock was prepared immediately before use by adding 40 μL of PMS per mL of XTT solution. Fifty (50) microlitres of XTT/PMS was added to each well of the plate and the plate was reincubated for 4 hours at 37° C. Plates were sealed with adhesive plate sealers and shaken gently or inverted several times to mix the soluble formazan product and the plate was read spectrophotometrically at 450/650 nm with a Molecular Devices Vmax plate reader. […] An Average Response Factor (ARF) was calculated for each compound by averaging the ten Percentage of Control values for the cell lines. […] Deviations below 100% control indicate activity. The concentration of each tested compound is 10 μM.

| SMILES | % Inhibition (Calf polymerase alpha) | inhibition at 10 µM (Calf polymerase alpha) | IC50 (Calf polymerase alpha) | CC50 at 3 days [1] | Range (Percentage of Control over the same 10 cell lines) [2] | viability at 10 µM [2] | ARF (Average Response Factor, Average Percentage of Control) [2] |
| --- | --- | --- | --- | --- | --- | --- | --- |
| CC1CCC(NC(=O)[C@H](CCCCN)NC(=O)Nc2ccc(OCc3ccccc3)cc2)CC1 (stereo partly drawn) [Compound 264, (S)-6-AMINO-2-[3-(4-BENZYLOXY-PHENYL)-UREIDO]-HEXANOIC ACID (4-METHYL-CYCLOHEXYL)-AMIDE] | 35% | 41% | 16 µM | 26.6 µM | – | – | – |
| NCCCCN(CC(=O)Nc1ccc(C2CCCCC2)cc1)C(=O)Nc1ccc(C=Cc2ccccc2)cc1 [Compound 324, 2-[1-(4-AMINO-BUTYL)-3-(4-STYRYL-PHENYL)-UREIDO]-N-(4-CYCLOHEXYL-PHENYL)-ACETAMIDE] | – | 92.5% | – | – | 69.3 to 109.9% | 95.8% | – |
| NCCCC[C@H](NC(=O)Nc1ccc(OCc2ccccc2)cc1)C(=O)Nc1cccc2c1CCC2 [Compound 321, (S)-6-AMINO-2-[3-(4-BENZYLOXY-PHENYL)-UREIDO]-HEXANOIC ACID INDAN-4-YLAMIDE] | – | 101% | – | – | 55.9 to 109.3% | 88% | – |
| Cc1ccc(NC(=O)[C@H](CCCCN)NC(=O)Nc2cccc(OCc3ccccc3)c2)cc1 [Compound 204, (S)-6-AMINO-2-[3-(3-BENZYLOXY-PHENYL)-UREIDO]-HEXANOIC ACID P-TOLYLAMIDE] | 94% | – | – | – | 70.1 to 116.4% | – | 89.3% |
| Cc1ccc(NC(=O)[C@@H](CCCCN)NC(=O)Nc2ccc(OCc3ccccc3)cc2)cc1 [Compound 172, (R)-6-AMINO-2-[3-(4-BENZYLOXY-PHENYL)-UREIDO]-HEXANOIC ACID P-TOLYLAMIDE] | – | 60% | 7.3 µM | 26 µM | – | – | – |
| Cc1ccc(NC(=O)[C@H](CCCCN)NC(=O)CNc2ccc(Oc3ccccc3)cc2)cc1 [Compound 368, (S)-6-AMINO-2-[2-(4-PHENOXY-PHENYLAMINO)-ACETYLAMINO]-HEXANOIC ACID P-TOLYLAMIDE] | – | – | 6 µM | 58 µM | – | – | – |
| Cc1ccc(NC(=O)[C@H](CCCCN)NS(=O)(=O)c2ccc(-c3ccccc3)cc2)cc1 [Compound 70, (S)-6-AMINO-2-(BIPHENYL-4-SULFONYLAMINO)-HEXANOIC ACID P-TOLYLAMIDE] | 50% | – | – | – | 61.1 to 115.5% | – | 94.5% |
| NCCCCCCNC(=O)[C@@H](NC(=O)Nc1ccc(OCc2ccccc2)cc1)c1ccccc1 [Compound 319, (S)—N-(6-AMINO-HEXYL)-2-[3-(4-BENZYLOXY-PHENYL)-UREIDO]-2-PHENYL-ACETAMIDE] | – | 71% | – | – | 80.0 to 116.4% | 95.6% | – |
| NCCCC[C@H](NC(=O)OCC1c2ccccc2-c2ccccc21)C(=O)Nc1ccc(CN)cc1 [Compound 228, (S)-[5-AMINO-1-(4-AMINOMETHYL-PHENYLCARBAMOYL)-PENTYL]-CARBAMIC ACID 9H-FLUOREN-9-YLMETHYL ESTER] | – | – | 5.5 µM | 36.7 µM | – | – | – |
| NCCCC[C@H](NC(=O)OCC1c2ccccc2-c2ccccc21)C(=O)Nc1ccc2c(c1)CCC2 [Compound 81, (S)-[5-AMINO-1-(INDAN-5-YLCARBAMOYL)-PENTYL]-CARBAMIC ACID 9H-FLUOREN-9-YLMETHYL ESTER] | – | 101% | – | – | 61.3 to 116.5% | 94.2% | – |
| Cc1ccc(NC(=O)[C@H](CCCCN)NC(=O)Nc2cccc(Oc3ccccc3)c2)cc1 [Compound 98, (S)-6-AMINO-2-[3-(3-PHENOXY-PHENYL)-UREIDO]-HEXANOIC ACID P-TOLYLAMIDE] | 89% | – | – | – | 53.8 to 126.6% | – | 90.8% |
| NCCCCC[C@H](NC(=O)NCc1ccccc1)C(=O)Nc1ccc(C2CCCCC2)cc1 [Compound 120, (S)-7-AMINO-2-(3-BENZYL-UREIDO)-HEPTANOIC ACID (4-CYCLOHEXYL-PHENYL)-AMIDE] | – | 100% | – | – | 40.4 to 117.1% | 88.4% | – |
